# Measured values taken from US9403815B2, “Compounds and uses thereof in modulating levels of various amyloid beta peptide alloforms” (The Regents of the University of California, priority 2010, dated 2016).
# pEC50, pIC50: −log10 of the molar value. Read-outs that look alike come from different tables or passages of the source.
# Legend:
# Aβtotal = assay: Sandwich ELISA for total Aβ peptides secreted by SH-SY5Y-APP cells; type: cell-based, human
# Experimental: (§1) The SH-SY5Y-APP human cell line was derived by transfecting a human neuroblastoma (SH-SY5Y) cell line with a plasmid expressing wild type human APP751 cDNA and selecting for stable expression of human APP and human Aβ. In each case, the levels of Aβ42 or Aβtotal or Aβ38 peptides secreted into the media of these cells were measured using either two-site monoclonal antibody (mAb)-based sandwich ELISA assays (described below for Aβ42 and Aβtotal) or in the case of Aβ38 EC50's, using either the Meso Scale Aβ38, 40, 42 triplex kit along with the Meso Scale Sector Imager 6000 according to the manufacturer's protocols. This SH-SY5Y-APP human cell line was used for all cell-based Aβ peptide immunochemical assays.
# (§2) SH-SY5Y-APP cells were plated at 75,000 cells/well in 96-well tissue culture plates. After 16-18 h, the culture medium was replaced with fresh medium containing either compound or vehicle. Replicates of 3 wells per test concentration were used, with 10 concentrations at ½ log step intervals. Vehicle (0.12% DMSO) is included as a control.
# The Sandwich ELISA ASSAY for Measuring Inhibition of Total Aβ Peptides and Determination of Aβtotal Peptides IC50 Inhibition Values
# Anti-Aβ1-12 monoclonal antibody was diluted 1/100 in 1×TBS. Vortex. 100 μl was pipetted into each well of a microplate. The coating monoclonal antibody covered the entire bottom of each well. Each microplate was covered with a plate sealer and placed in the refrigerator overnight.
# Microplates were removed from the refrigerator and each well was rinsed with 200 μl TBS. The wells were blocked by pipetting 200 μl 1% BSA/TBS per well of each microplate. The microplates were incubated at room temperature for 60 minutes.
# 50 μl of sample was pipetted at the appropriate dilution into designated wells of the microplates. The microplates were incubated at room temperature for 2 hrs.
# The biotinylated monoclonal antibody (anti-human Amyloid Beta Protein, Clone 4G8) was diluted 1/5000 in 1% BSA/TBS/0.1% Tween-20. After vortexing, 50 μl was pipetted into each well of each microplate. The microplates were incubated at room temperature on a laboratory bench top for 1 hour.
# Alkaline Phosphatase Conjugated Streptavidin was diluted 1/10,000 in 1% BSA/TBS/0.1% Tween-20. Vortex. 50 μl was pipetted into each well of microplate. The microplates were incubated at room temperature on bench top for 1 h.
# After finishing washing the microplates (≦5 microplates per assay), 50 μl of CSPD-Sapphire luminescence substrate (brought room temperature prior to use) was added to each well and the wells were incubated for 15 minutes at room temperature in the dark. The timer was started after finishing of the adding of the substrate solution to the first plate of the group of microplates. […]
# Plates were read in a Glow Runner luminometer. […]
# Aβ42 = assay: Sandwich ELISA for inhibition of Aβ42 secreted by SH-SY5Y-APP cells; type: cell-based; conditions: Homo sapiens
# Experimental: as §1, §2
# The Sandwich ELISA Assay for Measuring Inhibition of Aβ42 and Determination of Aβ42 IC50 Inhibition Values
# An Anti-Aβ35-42 coating monoclonal antibody which is specific for the Aβ42 peptide, stored in 60 μl aliquots at −80° C. (thaw once and discard after use).
# An Anti-Aβ1-12 alkaline phosphatase-conjugated monoclonal antibody, stored at 4° C.
# Anti-Aβ35-42 monoclonal antibody was diluted 1/300 in 1×TBS. After vortexing, pipette 100 μl of antibody into each well of microplate. The antibody covered the entire bottom of each well. Each microplate was covered with a plate sealer and placed at 4° C. for 19 h.
# Microplates were removed from the cold room, the coating monoclonal antibody were aspirated off from all wells. Each well was rinsed once with 200 μl TBS^2. The wells were blocked by pipetting 200 μl of 1% BSA/TBS blocking solution per well and the plates incubated at room temperature for 60 minutes on a laboratory benchtop.
# Sample addition to plates: Directly following the 60 min block step, blocking buffer was aspirated off and 50 μl of sample was pipetted to each well and then standard curve samples (50 μl) were added in duplicate to top 2 rows.
# The plates were incubated at room temperature for 2 h.
# Anti-Aβ1-12 mAb-alkaline phosphatase conjugate was diluted 1/10,000 in 1% BSA/TBS/0.1% Tween-20 and vortexed. 50 μl was pipetted into each well of the microplate.
# To all plates, 50 μl of CDP-Star (Sapphire) luminescence substrate (brought to room temperature prior to use) was added to each well and incubated for 15 min at room temperature in the dark. The timer was started after finishing adding the substrate to the first plate of the group. This step was done with a group of 5 plates or less.
# Each microplate was read in a Glow Runner luminometer^3.
# Data Analysis (Apply to Both Aβ42 and Aβtotal Sandwich ELISA Assays):
# A. Calculations • 1. Average the sample values and calculate the SD (standard deviation) and % CV (all datapoints must be <30%). If not, determine if one well is an outlier by using the Grubbs test (Graphpad website). • 2. Convert sample values to pg/well using the linear fit of the standard curve. Footnotes (Apply to Both Aβ42 and Aβtotal Sandwich ELISA Assays)
# Aβ38 = assay: Meso Scale Aβ38, 40, 42 triplex assay for potentiation of Aβ38 in SH-SY5Y-APP cells; type: cell-based; conditions: Homo sapiens, Meso Scale triplex kit
# Experimental: as §1, §2
# [1] = Solubility at pH 6.6 and pH 7.4; type: physicochemical
# NOTCH = assay: Western blot of NOTCH proteolysis (NICD production) in H4-APP751 cells transfected with NδED; type: cell-based, human; conditions: 500 nM, 24 hrs
# Experimental: Stable H4 human neuroglioma cells over-expressing human APP751 (H4-APP751 cells), were transfected with the NδED construct (Lanes 1-6), and then treated with vehicle (DMSO; Lanes 1-2 Control), 500 nM GSM41 (test compound), or 500 nM DAPT (Lanes 5-6 inhibitor of gamma secretase) for another 24 hrs. Additionally H4-APP751 cells were transfected with the NICD construct (as a reference of NICD; Lanes 7-8). Cells were harvested 48 hrs post transfection and subjected to Western blotting analysis. Myc antibody was utilized to assess the NδED and NICD tagged with Myc on their N-termini. β-Actin was utilized as the loading control.
# [2] = pH 6.6, aqueous buffer, pH6.6, read-out: Solubility (μM) pH6.6
pIC50 (Aβ42),Compound,further results
6.30 to 6.60,Cc1cn(-c2ccc(-c3csc(Nc4cc(C(C)(C)C)nn4C)n3)cc2)cn1 [Compound 27],Total Aβ (Aβtotal): No Change
6.60 to 7.00,Cc1cn(-c2ccc(-c3csc(Nc4cc(C(C)(C)C)nn4C)n3)cc2F)cn1 [Compound 28],–
6.60 to 7.00,COc1cc(-c2csc(Nc3cc(C(C)(C)C)nn3C)n2)ccc1-n1cnc(C)c1 [Compound 29],–
< 6.30,Cc1cn(-c2ccc(-c3csc(Nc4cc(C(C)(C)C)nn4C)n3)cn2)cn1 [Compound 30],–
6.60 to 7.00,Cc1cn(-c2ccc(-c3csc(Nc4c5c(nn4C)CCCC5)n3)cc2)cn1 [Compound 31],Total Aβ (Aβtotal): No Change
6.60 to 7.00,Cc1cn(-c2ccc(-c3csc(Nc4c5c(nn4C)CCCC5)n3)cc2F)cn1 [Compound 32],–
6.60 to 7.00,COc1cc(-c2csc(Nc3c4c(nn3C)CCCC4)n2)ccc1-n1cnc(C)c1 [Compound 33],–
< 6.30,Cc1cn(-c2ccc(-c3csc(Nc4c5c(nn4C)CCCC5)n3)cn2)cn1 [Compound 34],Total Aβ (Aβtotal): No Change
6.60 to 7.00,CCn1nc(C(C)(C)C)cc1Nc1nc(-c2ccc(-n3cnc(C)c3)cc2)cs1 [Compound 35],–
> 7.00,CCn1nc(C(C)(C)C)cc1Nc1nc(-c2ccc(-n3cnc(C)c3)c(F)c2)cs1 [Compound 36],pEC50 (Aβ38): < 6.30; Total Aβ (Aβtotal): No Change
> 7.00,CCn1nc(C(C)(C)C)cc1Nc1nc(-c2ccc(-n3cnc(C)c3)c(OC)c2)cs1 [Compound 37],pEC50 (Aβ38): 6.60 to 7.00
6.30 to 6.60,CCn1nc(C(C)(C)C)cc1Nc1nc(-c2ccc(-n3cnc(C)c3)nc2)cs1 [Compound 38],–
< 6.30,CCn1nc2c(c1Nc1nc(-c3ccc(-n4cnc(C)c4)cc3)cs1)CCCC2 [Compound 39],"solubility [1, 2]: 2.3 µM"
6.60 to 7.00,CCn1nc2c(c1Nc1nc(-c3ccc(-n4cnc(C)c4)c(F)c3)cs1)CCCC2 [Compound 40],–
> 7.00,CCn1nc2c(c1Nc1nc(-c3ccc(-n4cnc(C)c4)c(OC)c3)cs1)CCCC2 [Compound 41],"NICD levels (NOTCH proteolysis) compared to control (NOTCH): did not change NICD levels; pEC50 (Aβ38): < 6.30; solubility [1, 2]: 7.9 µM; solubility ([1]; pH 7.4, aqueous buffer, pH7.4, read-out: Solubility (μM) pH7.4): 6.4 µM"
< 6.30,CCn1nc2c(c1Nc1nc(-c3ccc(-n4cnc(C)c4)nc3)cs1)CCCC2 [Compound 42],–
6.60 to 7.00,COc1cc(-c2csc(Nc3cc(C(C)(C)C)nn3C(C)C)n2)ccc1-n1cnc(C)c1 [Compound 43],–
> 7.00,CCCn1nc(C(C)(C)C)cc1Nc1nc(-c2ccc(-n3cnc(C)c3)c(OC)c2)cs1 [Compound 45],–
> 7.00,Cc1cn(-c2ccc(-c3csc(Nc4cc(C(C)(C)C)nn4C(C)C)n3)cc2F)cn1 [Compound 46],–
> 7.00,CCCn1nc(C(C)(C)C)cc1Nc1nc(-c2ccc(-n3cnc(C)c3)c(F)c2)cs1 [Compound 48],–
> 7.00,CCn1nc2c(c1Nc1nc(-c3ccc(-n4cnc(C)c4)c(OC)n3)cs1)CCCC2 [Compound 49],–
–,"C[C@H](NC(=O)Cc1cc(F)cc(F)c1)C(=O)N[C@H](C(=O)OC(C)(C)C)c1ccccc1 [DAPT, reference compound]",NICD levels (NOTCH proteolysis) compared to control (NOTCH): decreased NICD levels
